Results as given in patent US12287322B2, “Composition for detecting hydrogen sulfide or measuring hydrogen sulfide concentration and composition comprising same as effective ingredient for diagnosing or imaging in vivo inflammation, tissues having hypoxic damage, or cancer” (SEOUL NATIONAL UNIVERSITY R&DB FOUNDATION, priority 2018, dated 2025).

Experiments:
[1] = tested on: reperfused brain after middle cerebral artery occlusion; assay: Autoradiography of brain reperfused after middle cerebral artery occlusion; type: in vivo, mouse; conditions: 2 hours occlusion, 12 hours recovery, 1 mCi tail vein, brain extracted after 1 hour, compared with TTC staining, FIG. 11
[2] = tested on: inflamed tissue where hydrogen sulfide was generated (carrageenan hind paw); assay: SPECT-CT imaging of carrageenan-inflamed tissue where hydrogen sulfide is produced; type: in vivo; conditions: mouse, 300 μCi tail vein 4 hours after 1% carrageenan, SPECT-CT after 1 hour, FIG. 10
Experimental: It has been reported that hydrogen sulfide was generated in the inflamed tissue induced by the administration of carrageenan (Li L, Bhatia M, Zhu Y Z, et al. FASEB J. (2005) 19:1196-1198; Bhatia M, Sidhapuriwala J, Moochhala S M, et al. Br J Pharmacol. (2005) 145:141-144.). Accordingly, the following experiment was performed to confirm whether the imaging of the inflamed tissue where hydrogen sulfide was generated was possible when the ^99mTc-alpha-hydroxy acid according to the present invention was administered.
30 μL of physiological saline containing 1% carrageenan was injected into the right hind paw of a mouse, and 30 μL of physiological saline was injected into the left hind paw of the mouse.

[3] = Reaction of ^99mTc-alpha-hydroxy acid with glutathione, insoluble substances by ITLC; conditions: 4 mM glutathione in 0.2 M sodium phosphate buffer pH 7.4, 37° C., 15 minutes
Experimental: (§1) Particularly, the ^99mTc-alpha-hydroxy acid prepared in Example 1 was diluted 5 times with physiological saline, and then 100 μL of each diluent was taken, to which 100 μL of each of 0.2 M sodium phosphate buffer (pH 7.4) containing 0.4 mM NaHS, 4 mM glutathione, 0.4 mM cysteine, 0.4 mM sodium sulfite, 0.4 mM sodium sulfate, 0.4 mM sodium thiosulfate, and 0.4 mM NONOate (NO generating reagent) was added, followed by reaction at 37° C. for 15 minutes. Then, ITLC was developed with physiological saline to determine the percentage of the radioactivity remaining at the origin.

[4] = ^99mTc-alpha-hydroxy acid in phosphate buffer alone, insoluble substances by ITLC; conditions: 0.2 M sodium phosphate buffer pH 7.4 alone, 37° C., 15 minutes
Experimental: as §1

[5] = Reaction of ^99mTc-alpha-hydroxy acid with sodium sulfite, insoluble substances by ITLC; conditions: 0.4 mM sodium sulfite in 0.2 M sodium phosphate buffer pH 7.4, 37° C., 15 minutes
Experimental: as §1

[6] = Reaction of ^99mTc-alpha-hydroxy acid with sodium sulfate, insoluble substances by ITLC; conditions: 0.4 mM sodium sulfate in 0.2 M sodium phosphate buffer pH 7.4, 37° C., 15 minutes
Experimental: as §1

[7] = Reaction of ^99mTc-alpha-hydroxy acid with cysteine, insoluble substances by ITLC; conditions: 0.4 mM cysteine in 0.2 M sodium phosphate buffer pH 7.4, 37° C., 15 minutes
Experimental: as §1

[8] = Reaction of ^99mTc-alpha-hydroxy acid with NO (NONOate), insoluble substances by ITLC; conditions: 0.4 mM NONOate in 0.2 M sodium phosphate buffer pH 7.4, 37° C., 15 minutes
Experimental: as §1

[9] = Reaction of ^99mTc-alpha-hydroxy acid with sodium thiosulfate, insoluble substances by ITLC; conditions: 0.4 mM sodium thiosulfate in 0.2 M sodium phosphate buffer pH 7.4, 37° C., 15 minutes
Experimental: as §1

[10] = Reaction of ^99mTc-alpha-hydroxy acid with NaHS, insoluble substances by ITLC; conditions: 0.4 mM NaHS in 0.2 M sodium phosphate buffer pH 7.4, 37° C., 15 minutes; radioactivity at origin, ITLC saline
Source text: Then, ITLC was developed with physiological saline to determine the percentage of the radioactivity remaining at the origin.

hydrogen sulfide in paw = assay: Hydrogen sulfide concentration in inflamed area (DMPD/FeCl3, absorbance 665 nm); type: in vivo; conditions: mouse paw, 4 hours after 30 μL 1% carrageenan, n=3
Experimental: In order to confirm that the concentration of hydrogen sulfide in the inflamed area was higher than the concentration of hydrogen sulfide in the normal area, it was measured as follows using a method described in the literature (A D Ang, A Konigstorfer, G I Giles, M Bhatia. Adv Biol Chem, 2012, 2:360-365). After 4 hours, the mouse was euthanized with carbon dioxide gas, and the ankle was cut and the weight was measured. 500 μL of 50 mM sodium carbonate buffer (pH 9) chilled with ice was added thereto and homogenized for 30 seconds gently, 1 minute 30 seconds moderately, and 30 seconds vigorously. After centrifugation at 1200×g for 5 minutes, the supernatant was obtained, to which 400 μL of a mixed solution of 350 μL of 1% zinc acetate and 50 μL of 1.5 M sodium hydroxide was added, followed by mixing well. After centrifugation at 1200×g for 5 minutes, the supernatant was discarded. To the precipitated pellet, 1 mL of distilled water saturated with nitrogen was added, which was mixed by vortexing for 1 minute. After centrifugation at 1200×g for 5 minutes, the supernatant was discarded. […] After reacting at room temperature for 15 minutes, absorbance was measured at 665 nm. A standard quantification curve was drawn with a standard sample measured by the same method, and then quantified.

OC[C@H]1OC(O)[C@H]([18F])[C@@H](O)[C@@H]1O (stereo partly shown) [[^18F] FDG, reference compound]
distribution of radioactivity in brain sections [1]: almost overlapped with the red area stained by TTC

O=C1[O][99Tc-]2(=[O])([O]C(=O)C(C(O)C(O)C(O)C(O)CO)[O]2)[O]C1C(O)C(O)C(O)C(O)CO (stereo not shown) [^99mTc-glucoheptonate]
radioactivity of the inflamed area versus area administered with physiological saline [2]: clearly higher

O=C1[O][99Tc-]2(=[O])([O]C(=O)[C@@H]([C@@H](O)[C@H](O)[C@H](O)CO)[O]2)[O][C@@H]1[C@@H](O)[C@H](O)[C@H](O)CO [^99mTc-gluconate]
radioactivity of the inflamed area versus area administered with physiological saline [2]: clearly higher
percentage of insoluble substances produced after reaction with Glutathione [3]: 12.0 ± 2.4%
distribution of radioactivity in brain sections [1]: ingested at the boundary area rather than completely dead brain tissues and the normal brain tissues
percentage of insoluble substances produced in Buffer [4]: 8.7 ± 1.8%
percentage of insoluble substances produced after reaction with Sodium sulfite [5]: 6.4 ± 0.7%
percentage of insoluble substances produced after reaction with Sodium sulfate [6]: 7.9 ± 1.5%
percentage of insoluble substances produced after reaction with Cysteine [7]: 5.1 ± 0.6%
percentage of insoluble substances produced after reaction with NO [8]: 6.1 ± 1.0%
percentage of insoluble substances produced after reaction with Thiosodium sulfate [9]: 6.5 ± 1.0%

^99mTc-citrate
percentage of insoluble substances produced after reaction with Glutathione [3]: 7.5 ± 1.7%
percentage of insoluble substances produced in Buffer [4]: 4.0 ± 0.1%
percentage of insoluble substances produced after reaction with Sodium sulfite [5]: 7.8 ± 0.7%
percentage of insoluble substances produced after reaction with NaHS [10]: 8.3±1.0%
percentage of insoluble substances produced after reaction with Sodium sulfate [6]: 8.0 ± 0.5%
percentage of insoluble substances produced after reaction with Cysteine [7]: 2.1 ± 0.2%
percentage of insoluble substances produced after reaction with NO [8]: 5.6 ± 0.4%
percentage of insoluble substances produced after reaction with Thiosodium sulfate [9]: 5.5 ± 0.1%

^99mTc-glucarate
percentage of insoluble substances produced after reaction with Glutathione [3]: 13.4 ± 2.7%
percentage of insoluble substances produced in Buffer [4]: 4.6 ± 0.5%
percentage of insoluble substances produced after reaction with Sodium sulfite [5]: 5.5 ± 0.8%
percentage of insoluble substances produced after reaction with NaHS [10]: 37.0±4.7%
percentage of insoluble substances produced after reaction with Sodium sulfate [6]: 4.6 ± 0.5%
percentage of insoluble substances produced after reaction with Cysteine [7]: 6.4 ± 1.7%
percentage of insoluble substances produced after reaction with NO [8]: 4.7 ± 0.7%
percentage of insoluble substances produced after reaction with Thiosodium sulfate [9]: 5.6 ± 0.3%

carrageenan
concentration of hydrogen sulfide in the paws (hydrogen sulfide in paw): 43.7 ± 3.5 µM
